Experimental data from ChEMBL document CHEMBL1649379, “Synthesis of a novel ester of hydroxytyrosol and α-lipoic acid exhibiting an antiproliferative effect on human colon cancer HT-29 cells” (2011).

Assays:
Type in all cases: functional
[1] = test system: HT-29; assay: Growth inhibition of human HT-29 cells at 100 uM after 24 hrs by BrdU-ELISA assay; settings: HT-29, 24 h, read-out: GI
[2] = test system: HT-29; assay: Growth inhibition of human HT-29 cells at 150 uM after 24 hrs by BrdU-ELISA assay; settings: HT-29, 24 h, read-out: GI
[3] = test system: HT-29; assay: Growth inhibition of human HT-29 cells at 300 uM after 24 hrs by BrdU-ELISA assay; settings: HT-29, 24 h, read-out: GI
[4] = test system: HT-29; assay: Growth inhibition of human HT-29 cells at 100 uM after 48 hrs by BrdU-ELISA assay; settings: HT-29, 48 h, read-out: GI
[5] = test system: HT-29; assay: Growth inhibition of human HT-29 cells at 150 uM after 48 hrs by BrdU-ELISA assay; settings: HT-29, 48 h, read-out: GI
[6] = test system: HT-29; assay: Growth inhibition of human HT-29 cells at 300 uM after 48 hrs by BrdU-ELISA assay; settings: HT-29, 48 h, read-out: GI
[7] = test system: HT-29; assay: Induction of cell cycle arrest in human HT-29 cells assessed as accumulation at G0/G1 phase at 100 uM after 24 hrs by flow cytometry (reference value: 61.4+/-1.1%)
[8] = test system: HT-29; assay: Induction of cell cycle arrest in human HT-29 cells assessed as accumulation at G0/G1 phase at 150 uM after 24 hrs by flow cytometry (reference value: 61.4+/-1.1%)
[9] = test system: HT-29; assay: Induction of cell cycle arrest in human HT-29 cells assessed as accumulation at G0/G1 phase at 300 uM after 24 hrs by flow cytometry (reference value: 61.4+/-1.1%)
[10] = test system: HT-29; assay: Induction of cell cycle arrest in human HT-29 cells assessed as accumulation at S phase at 100 uM after 24 hrs by flow cytometry (reference value: 21+/-0.9%)
[11] = test system: HT-29; assay: Induction of cell cycle arrest in human HT-29 cells assessed as accumulation at S phase at 150 uM after 24 hrs by flow cytometry (reference value: 21+/-0.9%)
[12] = test system: HT-29; assay: Induction of cell cycle arrest in human HT-29 cells assessed as accumulation at S phase at 300 uM after 24 hrs by flow cytometry (reference value: 21+/-0.9%)
[13] = test system: HT-29; assay: Induction of cell cycle arrest in human HT-29 cells assessed as accumulation at G2/M phase at 100 uM after 24 hrs by flow cytometry (reference value: 17.6+/-1%)
[14] = test system: HT-29; assay: Induction of cell cycle arrest in human HT-29 cells assessed as accumulation at G2/M phase at 150 uM after 24 hrs by flow cytometry (reference value: 17.6+/-1%)
[15] = test system: HT-29; assay: Induction of cell cycle arrest in human HT-29 cells assessed as accumulation at G2/M phase at 300 uM after 24 hrs by flow cytometry (reference value: 17.6+/-1%)

| SMILES | inhibition of growth at 100 µM [1] | inhibition of growth at 150 µM [2] | inhibition of growth at 300 µM [3] | inhibition of growth at 100 µM [4] | inhibition of growth at 150 µM [5] | inhibition of growth at 300 µM [6] | Activity [7] | Activity [8] | Activity [9] | Activity [10] | Activity [11] | Activity [12] | Activity [13] | Activity [14] | Activity [15] |
| --- | --- | --- | --- | --- | --- | --- | --- | --- | --- | --- | --- | --- | --- | --- | --- |
| OCCc1ccc(O)c(O)c1 [HYDROXYTYROSOL] | 20.7% | 37.5% | 64.2% | 17.3% | 29.3% | 53.2% | 40.5% | 40.3% | 34.4% | 22.5% | 20.3% | 20.1% | 35% | 36.7% | 43.5% |
| O=C(CCCCC1CCSS1)OCCc1ccc(O)c(O)c1 (stereo not given) | 33.9% | 69.6% | 83.9% | 45.6% | 70.6% | 83.6% | 31.3% | 29.3% | 28.2% | 17.7% | 18.1% | 14% | 49.7% | 50.5% | 56.8% |
| O=C(O)CCCCC1CCSS1 (stereo not drawn) [LIPOIC ACID, ALPHA] | 17.8% | 25.5% | 24% | 6.5% | 18.4% | 19.5% | 43.5% | 45.6% | 37.5% | 19.2% | 20.1% | 19.3% | 36.9% | 32.1% | 40.3% |
